Test results as given in ChEMBL document CHEMBL1129352, “Synthesis and biological evaluation of new imidazole, pyrimidine, and purine derivatives and analogs as inhibitors of xanthine oxidase” (J Med Chem, 1996).
pIC50, pKi: −log10 of the molar value.

Columns and labels:
[1] = target: T1, Xanthine dehydrogenase/oxidase (Homo sapiens, UniProt P47989); assay: Inhibitory activity against Xanthine Oxidase
[2] = target: T1, Xanthine dehydrogenase/oxidase; assay: Inhibitory activity against Xanthine Oxidase; Inactive
[3] = target: Xanthine dehydrogenase/oxidase (Bos taurus) (UniProt P80457); assay: Inhibitory activity against Xanthine Oxidase
Xanthine dehydrogenase/oxidase (Bos taurus), sequence (P80457 whole entry, looked up): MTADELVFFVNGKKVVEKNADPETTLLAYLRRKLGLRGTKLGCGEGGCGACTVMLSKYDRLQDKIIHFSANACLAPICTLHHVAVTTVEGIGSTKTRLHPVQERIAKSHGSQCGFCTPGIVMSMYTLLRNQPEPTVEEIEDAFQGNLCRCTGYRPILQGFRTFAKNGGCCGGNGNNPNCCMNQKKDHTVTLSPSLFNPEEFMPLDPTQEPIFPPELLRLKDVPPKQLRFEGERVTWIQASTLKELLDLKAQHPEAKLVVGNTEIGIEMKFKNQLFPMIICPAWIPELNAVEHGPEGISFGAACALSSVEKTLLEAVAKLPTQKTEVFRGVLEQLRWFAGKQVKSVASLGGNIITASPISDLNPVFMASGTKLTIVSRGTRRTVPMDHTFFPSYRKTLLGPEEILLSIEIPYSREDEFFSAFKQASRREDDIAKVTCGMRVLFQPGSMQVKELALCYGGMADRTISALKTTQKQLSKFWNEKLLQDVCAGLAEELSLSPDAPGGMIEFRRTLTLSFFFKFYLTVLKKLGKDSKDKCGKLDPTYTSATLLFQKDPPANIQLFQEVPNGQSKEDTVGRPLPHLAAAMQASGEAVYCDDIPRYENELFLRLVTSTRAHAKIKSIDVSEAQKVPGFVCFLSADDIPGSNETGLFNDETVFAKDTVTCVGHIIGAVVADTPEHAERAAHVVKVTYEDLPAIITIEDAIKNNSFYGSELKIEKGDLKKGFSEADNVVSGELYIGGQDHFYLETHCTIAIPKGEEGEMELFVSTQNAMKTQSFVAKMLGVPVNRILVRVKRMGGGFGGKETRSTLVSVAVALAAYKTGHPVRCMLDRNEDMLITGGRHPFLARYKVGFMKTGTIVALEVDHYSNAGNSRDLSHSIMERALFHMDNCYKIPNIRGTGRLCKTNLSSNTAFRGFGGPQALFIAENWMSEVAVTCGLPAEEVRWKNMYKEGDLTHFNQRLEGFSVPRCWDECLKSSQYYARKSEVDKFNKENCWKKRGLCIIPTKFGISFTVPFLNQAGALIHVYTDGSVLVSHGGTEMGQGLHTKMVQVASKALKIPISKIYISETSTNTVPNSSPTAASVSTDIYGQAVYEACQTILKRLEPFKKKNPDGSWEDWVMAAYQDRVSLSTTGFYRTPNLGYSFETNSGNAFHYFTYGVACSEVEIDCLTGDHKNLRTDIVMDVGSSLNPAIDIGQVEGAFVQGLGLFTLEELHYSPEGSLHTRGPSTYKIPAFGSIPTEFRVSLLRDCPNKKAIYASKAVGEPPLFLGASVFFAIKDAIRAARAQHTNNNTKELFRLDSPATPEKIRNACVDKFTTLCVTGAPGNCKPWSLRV

T1 sequence (P47989 whole entry): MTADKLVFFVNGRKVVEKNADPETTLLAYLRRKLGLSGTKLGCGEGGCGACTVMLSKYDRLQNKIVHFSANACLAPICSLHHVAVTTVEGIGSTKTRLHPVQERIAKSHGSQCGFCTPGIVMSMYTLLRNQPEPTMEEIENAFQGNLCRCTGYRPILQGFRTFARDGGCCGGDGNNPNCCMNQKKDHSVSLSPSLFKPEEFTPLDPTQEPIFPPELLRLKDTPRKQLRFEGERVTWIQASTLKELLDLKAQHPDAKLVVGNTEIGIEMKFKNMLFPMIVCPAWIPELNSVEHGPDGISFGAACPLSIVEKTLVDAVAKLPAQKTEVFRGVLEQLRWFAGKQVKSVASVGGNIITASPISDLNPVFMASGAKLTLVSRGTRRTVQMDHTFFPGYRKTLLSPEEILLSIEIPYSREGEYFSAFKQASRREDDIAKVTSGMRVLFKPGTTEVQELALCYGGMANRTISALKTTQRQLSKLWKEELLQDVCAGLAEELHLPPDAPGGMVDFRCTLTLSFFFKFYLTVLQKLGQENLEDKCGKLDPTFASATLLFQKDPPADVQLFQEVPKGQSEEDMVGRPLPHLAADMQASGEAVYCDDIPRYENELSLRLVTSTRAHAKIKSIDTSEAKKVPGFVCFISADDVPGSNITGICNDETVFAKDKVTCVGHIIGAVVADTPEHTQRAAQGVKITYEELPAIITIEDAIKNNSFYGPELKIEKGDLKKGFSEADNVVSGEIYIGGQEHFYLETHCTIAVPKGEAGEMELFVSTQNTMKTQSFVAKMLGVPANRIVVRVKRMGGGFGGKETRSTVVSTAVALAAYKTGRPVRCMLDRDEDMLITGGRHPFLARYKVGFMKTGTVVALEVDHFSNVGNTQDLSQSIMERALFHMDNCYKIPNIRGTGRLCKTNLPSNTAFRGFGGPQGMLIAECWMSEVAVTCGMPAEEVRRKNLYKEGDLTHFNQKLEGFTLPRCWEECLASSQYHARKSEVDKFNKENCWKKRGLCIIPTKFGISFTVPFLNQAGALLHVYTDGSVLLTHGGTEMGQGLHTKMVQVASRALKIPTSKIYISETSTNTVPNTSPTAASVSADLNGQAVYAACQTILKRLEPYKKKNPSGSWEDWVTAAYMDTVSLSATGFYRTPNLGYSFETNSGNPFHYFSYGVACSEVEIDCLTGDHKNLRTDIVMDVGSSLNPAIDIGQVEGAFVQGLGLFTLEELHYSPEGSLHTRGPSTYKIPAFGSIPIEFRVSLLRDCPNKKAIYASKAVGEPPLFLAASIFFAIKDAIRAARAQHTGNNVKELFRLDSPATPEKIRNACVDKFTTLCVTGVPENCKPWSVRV

| pIC50 [1] | pKi [1] | SMILES | further results |
| --- | --- | --- | --- |
| 4.59 | 4.75 | CCCCNc1nc(O)c2[nH]cnc2n1 | – |
| – | 5.24 | CSc1nc2nc(-c3ccccc3)[nH]c2c(=O)[nH]1 | – |
| 5.72 | 5.98 | CCCCCOC(=O)C(=O)Nc1[nH]cnc1C(N)=O | – |
| < 4.00 | – | CCCCc1nc(O)c2c[nH]nc2n1 | – |
| < 4.00 | – | CCCCCCSc1nc(N)c(NC=O)c(=O)[nH]1 | – |
| – | 4.61 | Oc1c2nc(S)nc-2nc2n1CCS2 | – |
| – | 6.48 | Oc1nc2nc(O)n3c(c-2n1)SCCC3 | – |
| – | 4.40 | Oc1nc2nc3n(c(O)c-2n1)CCS3 | – |
| 4.52 | 4.49 | CCCCCCNc1nc(O)c2[nH]cnc2n1 | – |
| – | 5.90 | Oc1nc2nc(O)n3c(c-2n1)SCC3 | – |
| < 4.00 | – | CCCCCSc1nc(N)c(NC=O)c(=O)[nH]1 | – |

More lines, now with the values behind:

| SMILES | pIC50 [1] | pKi [1] | further results |
| --- | --- | --- | --- |
| CCCCCSc1nc(N)cc(O)n1 | – | – | IC50 [2]: Not Active |
| Oc1c2nc(S)nc-2nc2n1CCCS2 | – | 3.88 | – |
| CCCc1nc2n[nH]cc2c(=O)[nH]1 | < 4.00 | – | – |
| O=c1[nH]c2nc(SCc3ccccc3)[nH]c(=O)c2[nH]1 | – | 5.35 | – |
| Oc1nc2nc3n(c(O)c-2n1)CCCS3 | – | 4.18 | – |
| CC1CSc2nc3nc(O)nc-3c(O)n2C1 (stereo not drawn) | – | < 4.00 | – |
| CCCCCCSc1nc(O)c2[nH]c(O)nc2n1 | – | 6.80 | – |
| CCCCOC(=O)C(=O)Nc1nc[nH]c1C(N)=O | 5.37 | 5.97 | – |
| O=c1[nH]c(=S)[nH]c2nc(-c3ccccc3)[nH]c12 | – | 5.68 | – |
| CCc1nc(O)c2c[nH]nc2n1 | < 4.00 | – | – |
| CCCCCc1nc2n[nH]cc2c(=O)[nH]1 | < 4.00 | – | – |
| CCCCC(=O)Nc1nc(O)c2[nH]cnc2n1 | – | – | IC50 [2]: Not Active |
| Oc1nc2nnnc-2c2n1CCCS2 | – | < 4.00 | – |
| CC1CSc2nc3nc(S)nc-3c(O)n2C1 (stereo not drawn) | – | < 4.00 | – |
| O=S1(=O)CCCn2c1nc1nc(O)nc-1c2O | – | – | Ki [2]: Not Active |
| CCCCSc1nc(N)c(NC=O)c(=O)[nH]1 | < 4.00 | – | – |
| CCCCCC(=O)Nc1nc[nH]c1C(N)=O | 4.90 | 5.59 | – |
| CCCCCCSc1nc(N)cc(O)n1 | – | – | IC50 [2]: Not Active |
| CCCCSc1nc(N)cc(O)n1 | – | – | IC50 [2]: Not Active |
| O=c1nc2[nH]c(=S)[nH]c2c2n1CCS2 | – | 5.73 | – |
| CCCC(=O)Nc1nc2nc[nH]c2c(=O)[nH]1 | < 4.00 | – | – |
| Oc1nc2nc(-c3ccccc3)nc-2c2n1CCCS2 | – | 4.03 | – |
| CCCCSc1nc2nc[nH]c2c(=O)[nH]1 | 5.41 | 6.75 | – |
| CCCCCC(=O)Nc1nc(O)c2[nH]cnc2n1 | – | – | IC50 [2]: Not Active |
| CCCCCCSc1nc2nc(-c3ccccc3)[nH]c2c(=O)[nH]1 | – | 6.32 | – |
| CCCCCNc1nc2nc[nH]c2c(=O)[nH]1 | 4.55 | 4.59 | – |
| CCCCCCOC(=O)C(=O)Nc1nc[nH]c1C(N)=O | 5.95 | 6.59 | – |
| Oc1nc2nc(S)nc-2c2n1CCCS2 | – | – | pKi [3]: 6.05 |
| O=c1[nH]c2nc(S(=O)(=O)Cc3ccccc3)[nH]c(=O)c2[nH]1 | – | 4.11 | – |
